pIC50: −log10 of the molar value. A value given as a limit tells only on which side of the number the result lay.

The target of one assay is T1, USP7 (Homo sapiens, UniProt Q93009).
T1 construct: USP7, construct USP7 (208-1102) 6*His, Viva Biotech; 6xHis (C); purchased Viva Biotech
T1 sequence (Q93009 208-1102): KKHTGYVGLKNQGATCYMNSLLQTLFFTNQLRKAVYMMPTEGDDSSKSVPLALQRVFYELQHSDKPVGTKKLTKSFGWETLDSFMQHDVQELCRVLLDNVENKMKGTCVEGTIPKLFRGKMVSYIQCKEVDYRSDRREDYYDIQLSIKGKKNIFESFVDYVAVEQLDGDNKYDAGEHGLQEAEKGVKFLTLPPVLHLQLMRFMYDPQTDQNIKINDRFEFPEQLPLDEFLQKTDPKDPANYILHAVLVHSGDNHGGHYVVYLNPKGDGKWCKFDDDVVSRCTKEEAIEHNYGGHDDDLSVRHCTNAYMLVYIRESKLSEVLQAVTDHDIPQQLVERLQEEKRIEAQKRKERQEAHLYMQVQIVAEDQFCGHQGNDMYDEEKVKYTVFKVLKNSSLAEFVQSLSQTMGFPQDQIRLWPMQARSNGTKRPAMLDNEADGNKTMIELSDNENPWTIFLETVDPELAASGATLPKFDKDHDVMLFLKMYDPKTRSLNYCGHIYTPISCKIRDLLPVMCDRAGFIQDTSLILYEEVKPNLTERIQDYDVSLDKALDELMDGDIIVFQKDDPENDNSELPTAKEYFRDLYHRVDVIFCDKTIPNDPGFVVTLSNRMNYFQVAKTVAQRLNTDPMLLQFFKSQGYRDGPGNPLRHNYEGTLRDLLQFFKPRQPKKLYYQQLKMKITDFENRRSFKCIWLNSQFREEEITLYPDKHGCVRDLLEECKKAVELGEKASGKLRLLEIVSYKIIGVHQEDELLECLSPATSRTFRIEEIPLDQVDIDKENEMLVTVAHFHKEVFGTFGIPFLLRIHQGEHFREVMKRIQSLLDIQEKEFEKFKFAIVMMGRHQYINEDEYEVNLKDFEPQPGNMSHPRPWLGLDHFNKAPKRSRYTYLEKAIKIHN
Nature of the assay: USP7 Assay A (Ubitquin-Rhodamine 110 Assay). Format: biochemical. The note with it: USP7 activity in USP7 assay A and B (table does not say which assay per compound); read-out: USP7_IC50. In a few lines: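 Ub-Rh110 cleavage in 20 mM Tris-HCl pH 8.0 with 1 mM GSH, 0.03% BGG, 0.01% Triton X-100; compound preincubated with enzyme 30 min before substrate.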
As for `CN1CCN(c2ccc(-n3ncc4c(=O)n(CC5(O)CCN(C(=O)CC(C(F)F)n6cccn6)CC5)cnc43)cc2)CC1` (stereo not shown) [Compound I-825], the pIC50 was above 6.70.

In the case of `CN1CCN(c2ccc(-n3ncc4c(=O)n(CC5(O)CCN(C(=O)C[C@H](C(F)F)n6cccn6)CC5)cnc43)cc2)CC1` [Compound I-826], the pIC50 was above 6.70.

As for `CN1CCN(c2cccc(-n3ncc4c(=O)n(CC5(O)CCN(C(=O)C[C@H](C(F)F)n6cccn6)CC5)cnc43)c2)CC1` [Compound I-829], the pIC50 is above 6.70.

`CN1CCN(c2cccc(-n3ncc4c(=O)n(CC5(O)CCN(C(=O)C[C@@H](C(F)F)n6cccn6)CC5)cnc43)c2)CC1` [Compound I-830]: the pIC50 was 6.00 to 6.70.

Take `C=CC(=O)N1CCC1C(=O)N1CCC(O)(Cn2cnc3c(cnn3-c3cccc(N4CCN(C)CC4)c3)c2=O)CC1` (stereo not shown) [Compound I-831]: the pIC50 was above 6.70.

As to `C=CC(=O)N1CCC1C(=O)N1CCC(O)(Cn2cnc3c(cnn3-c3ccc(N4CCN(C)CC4)cc3)c2=O)CC1` (stereo not shown) [Compound I-832], the pIC50 is above 6.70.

For `C[C@]1(O)CCN(c2ccc(-n3ncc4c(=O)n(CC5(O)CCN(C(=O)C[C@H](C(F)F)n6cccn6)CC5)cnc43)cc2)C1` [Compound I-833], the pIC50 was above 6.70.

Regarding `C[C@@]1(O)CCN(c2ccc(-n3ncc4c(=O)n(CC5(O)CCN(C(=O)C[C@H](C(F)F)n6cccn6)CC5)cnc43)cc2)C1` [Compound I-834], the pIC50 was 5.00 to 6.00.

Regarding `C[C@]1(O)CCN(c2ccc(-n3ncc4c(=O)n(CC5(O)CCN(C(=O)C[C@@H](C(F)F)n6cccn6)CC5)cnc43)cc2)C1` [Compound I-835], the pIC50 was above 6.70.

With `C[C@@]1(O)CCN(c2ccc(-n3ncc4c(=O)n(CC5(O)CCN(C(=O)C[C@@H](C(F)F)n6cccn6)CC5)cnc43)cc2)C1` [Compound I-836], the pIC50 was 5.00 to 6.00.

As for `C[C@@H](CC(=O)N1CCC(O)(Cn2cnc3c(cnn3-c3ccc(N4CC[C@](C)(O)C4)cc3)c2=O)CC1)n1cccn1` [Compound I-837], the pIC50 was above 6.70.

In the case of `C[C@@H](CC(=O)N1CCC(O)(Cn2cnc3c(cnn3-c3ccc(N4CC[C@@](C)(O)C4)cc3)c2=O)CC1)n1cccn1` [Compound I-838], the pIC50 was 5.00 to 6.00.

As to `C[C@H](CC(=O)N1CCC(O)(Cn2cnc3c(cnn3-c3ccc(N4CC[C@](C)(O)C4)cc3)c2=O)CC1)n1cccn1` [Compound I-839], the pIC50 is above 6.70.

In the case of `C[C@H](CC(=O)N1CCC(O)(Cn2cnc3c(cnn3-c3ccc(N4CC[C@@](C)(O)C4)cc3)c2=O)CC1)n1cccn1` [Compound I-840], the pIC50 is 5.00 to 6.00.

In the case of `CNC1CCN(c2ccc(-c3ccc(-n4ncc5c(=O)n(CC6(O)CCN(C(=O)C7CC7)CC6)cnc54)cc3)cn2)C1` (stereo not shown) [Compound I-845], the pIC50 was above 6.70.

`Cc1ncc(C(=O)N2CCC(O)(Cn3cnc4c(cnn4-c4ccc(C5CCC5)cc4)c3=O)CC2)o1` [Compound I-846]: the pIC50 is 6.00 to 6.70.

In the case of `O=C(c1cnc(C2CC2)o1)N1CCC(O)(Cn2cnc3c(cnn3-c3ccc(C4CCC4)cc3)c2=O)CC1` [Compound I-847], the pIC50 was 6.00 to 6.70.

As for `O=C(c1cnc(C2CC2)o1)N1CCC(O)(Cn2cnc3c(ccn3-c3ccc(F)cc3)c2=O)CC1` [Compound I-849], the pIC50 is above 6.70.

For the compound `Cc1cc2c(=O)n(CC3(O)CCN(C(=O)c4cnc(C5CC5)o4)CC3)cnc2n1-c1ccc(F)cc1` [Compound I-850], the pIC50 is 6.00 to 6.70.

Regarding `O=C(C1CCC(Oc2ccccn2)CC1)N1CCC(O)(Cn2cnc3c(cnn3-c3ccc(CO)cc3)c2=O)CC1` (stereo not shown) [Compound I-852], the pIC50 is above 6.70.

In the case of `O=C(C1CCC(Oc2ccccn2)CC1)N1CCC(O)(Cn2cnc3c(cnn3-c3ccc(CO)cc3)c2=O)CC1` (stereo not shown) [Compound I-853], the pIC50 was 6.00 to 6.70.

For the compound `O=C(C[C@H](C(F)F)n1cccn1)N1CCC(O)(Cn2cnc3c(cnn3-c3ccc(CN4CCC4)cc3)c2=O)CC1` [Compound I-855], the pIC50 was above 6.70.

For `O=C(C[C@H](n1cccn1)C(F)(F)F)N1CCC(O)(Cn2cnc3c(cnn3-c3ccc(F)cc3)c2=O)CC1` [Compound I-912], the pIC50 was 5.00 to 6.00.

Turning to `O=C(C[C@@H](n1cccn1)C(F)(F)F)N1CCC(O)(Cn2cnc3c(cnn3-c3ccc(F)cc3)c2=O)CC1` [Compound I-913], the pIC50 is 5.00 to 6.00.

For the compound `O=C(c1cnc(N2CCC(O)CC2)o1)N1CCC(O)(Cn2cnc3c(cnn3-c3ccc(F)cc3)c2=O)CC1` [Compound I-915], the pIC50 is 5.00 to 6.00.

Consider `Cc1ccc(-n2ncc3c(=O)n(CC4(O)CCN(C(=O)C5CC(Oc6ccccn6)C5)CC4)cnc32)cc1` (stereo not shown) [Compound I-917], for which the pIC50 was 5.00 to 6.00.

With `O=C(C[C@@H](C(F)F)n1cc(F)cn1)N1CCC(O)(Cn2cnc3c(cnn3-c3ccc(F)cc3)c2=O)CC1` [Compound I-918], the pIC50 was below 5.00.

For the compound `O=C(c1ccc(-n2cnnc2)cc1)N1CCC(O)(Cn2cnc3c(cnn3-c3ccc(Cl)cc3)c2=O)CC1` [Compound I-919], the pIC50 is 5.00 to 6.00.

Turning to `CN1CCC(Oc2ccc(C(=O)N3CCC(O)(Cn4cnc5c(cnn5-c5ccc(Cl)cc5)c4=O)CC3)cn2)C1` (stereo not shown) [Compound I-920], the pIC50 was 5.00 to 6.00.

`Cn1cc(C(=O)N2CCC(O)(Cn3cnc4c(cnn4-c4ccc(F)cc4)c3=O)CC2)c(Cn2cccn2)n1` [Compound I-921]: the pIC50 is 5.00 to 6.00.

`Cc1cc(OC2CCN(C(=O)N3CCC(O)(Cn4cnc5c(cnn5-c5ccc(F)cc5)c4=O)CC3)CC2)no1` [Compound I-922]: the pIC50 was 5.00 to 6.00.

Take `Cn1cc(OC2CCN(C(=O)N3CCC(O)(Cn4cnc5c(cnn5-c5ccc(F)cc5)c4=O)CC3)CC2)cn1` [Compound I-923]: the pIC50 is 5.00 to 6.00.

Turning to `CC(=O)NC1CCC(C(=O)N2CCC(O)(Cn3cnc4c(cnn4-c4ccc(F)cc4)c3=O)CC2)CC1` (stereo not shown) [Compound I-924], the pIC50 was 5.00 to 6.00.

Take `O=C(C1CCC(OC2CCOCC2)CC1)N1CCC(O)(Cn2cnc3c(cnn3-c3ccc(F)cc3)c2=O)CC1` (stereo not shown) [Compound I-925]: the pIC50 is 5.00 to 6.00.

In the case of `O=C(C1CCC(OC2CCOCC2)CC1)N1CCC(O)(Cn2cnc3c(cnn3-c3ccc(F)cc3)c2=O)CC1` (stereo not shown) [Compound I-926], the pIC50 is 6.00 to 6.70.

Consider `CN1CCN(c2cnn(-c3ccc(-n4ncc5c(=O)n(CC6(O)CCN(C(=O)C7CC7)CC6)cnc54)cc3)c2)CC1` [Compound I-975, 5-[(1-cyclopropanecarbonyl-4-hydroxypiperidin-4-yl)methyl]-1-{4-[4-(4-methylpiperazin-1-yl)-1H-pyrazol-1-yl]phenyl}-1H,4H,5H-pyrazolo[3,4-d]pyrimidin-4-one], for which the pIC50 is 6.00 to 6.70.

Take `O=C(c1ccc(F)cc1)N1CCC(O)(Cn2cnc3c(cnn3-c3ccc(-n4cc5c(n4)CCOC5)cc3)c2=O)CC1` [Compound I-976]: the pIC50 is 5.00 to 6.00.

Still in this assay, the particulars now being: USP7 assay A and B (table does not say which assay per compound); read-out: USP7_IC50.
With `CN(C)CCN(C)c1cccc(-n2ncc3c(=O)n(CC4(O)CCN(C(=O)c5ccc(F)cc5)CC4)cnc32)c1` [Compound I-823], the pIC50 was 6.00 to 6.70.

For `O=C(c1ccc(F)cc1)N1CCC(O)(Cn2cnc3c(cnn3-c3ccc(F)c(N4CCNCC4)c3)c2=O)CC1` [Compound I-824], the pIC50 is 6.00 to 6.70.

For the compound `O=C(C1CC1)N1CCC(O)(Cn2cnc3c(cnn3-c3ccc(-c4ccc(O[C@H]5CCNC5)cc4)cc3)c2=O)CC1` [Compound I-841], the pIC50 is 6.00 to 6.70.

Turning to `O=C(C1CC1)N1CCC(O)(Cn2cnc3c(cnn3-c3ccc(-c4ccc(O[C@@H]5CCNC5)cc4)cc3)c2=O)CC1` [Compound I-842], the pIC50 is 6.00 to 6.70.

As for `O=C(C1CC1)N1CCC(O)(Cn2cnc3c(cnn3-c3ccc(C4CCNCC4)cc3)c2=O)CC1` [Compound I-843, 5-((1-(cyclopropanecarbonyl)-4-hydroxypiperidin-4-yl)methyl)-1-(4-(piperidin-4-yl)phenyl)-1H-pyrazolo[3,4-d]pyrimidin-4(5H)-one], the pIC50 is 6.00 to 6.70.

With `CN1CCN(c2ccc(-c3ccc(-n4ncc5c(=O)n(CC6(O)CCN(C(=O)C7CC7)CC6)cnc54)cc3)cc2)CC1` [Compound I-844], the pIC50 was above 6.70.

`O=C(c1ccc(OC(F)F)cc1)N1CCC(O)(Cn2cnc3c(cnn3-c3ccc(CO)cc3)c2=O)CC1` [Compound I-851]: the pIC50 was 6.00 to 6.70.

`CN(C)CCOc1cc(-n2ncc3c(=O)n(CC4(O)CCN(C(=O)C5CC5)CC4)cnc32)ccc1-c1ccccc1` [Compound I-856]: the pIC50 was 6.00 to 6.70.

On to `Cn1ncc2c(=O)n(CC3(O)CCN(C(=O)C[C@@H](c4ccccc4)C(F)(F)F)CC3)cnc21` [Compound I-861], for which the pIC50 is below 5.00.

On to `Cc1nnc(-c2ccc(C(=O)N3CCC(O)(Cn4cnc5c(cnn5-c5ccc(F)cc5)c4=O)CC3)cc2)o1` [Compound I-911], for which the pIC50 was 5.00 to 6.00.

On to `C#CC(=O)NC1CC(C(=O)N2CCC(O)(Cn3cnc4c(cnn4-c4ccc(F)cc4)c3=O)CC2)C1` (stereo not shown) [Compound I-950], for which the pIC50 was 5.00 to 6.00.

Turning to `C#CC(=O)N[C@@H]1CC[C@@H]1C(=O)N1CCC(O)(Cn2cnc3c(cnn3-c3ccc(F)cc3)c2=O)CC1` [Compound I-952], the pIC50 is 6.00 to 6.70.

Take `Nc1cccc(-n2ncc3c(=O)n(CC4(O)CCN(C(=O)C5CC5)CC4)cnc32)c1` [Compound I-964]: the pIC50 is 5.00 to 6.00.

In the case of `Nc1ccc(-n2ncc3c(=O)n(CC4(O)CCN(C(=O)C5CC5)CC4)cnc32)cc1` [Compound I-965], the pIC50 was 5.00 to 6.00.

For `CN(C)C(=O)N1CCC(O)(Cn2cnc3c(cnn3-c3ccc(N4CCNCC4)cc3)c2=O)CC1` [Compound I-967], the pIC50 is 5.00 to 6.00.

On to `CN1CCN(c2ccc(-n3ncc4c(=O)n(CC5(O)CCN(C(=O)c6ccccc6)CC5)cnc43)cc2F)CC1` [Compound I-970], for which the pIC50 is 5.00 to 6.00.

With `CO[C@]1(C)CCN(c2cc(-n3ncc4c(=O)n(CC5(O)CCN(C(=O)C6CC6)CC5)cnc43)ccc2F)C1` [Compound I-972], the pIC50 is 5.00 to 6.00.

`CN(C)C(=O)N1CCC(O)(Cn2cnc3c(cnn3-c3cccc(N4C[C@@H](O)[C@H](F)C4)c3)c2=O)CC1` [Compound I-974]: the pIC50 is 5.00 to 6.00.

For the origin of these results see patent US9902728B2, “Pyrrolo and pyrazolopyrimidines as ubiquitin-specific protease 7 inhibitors” (Forma Therapeutics, Inc., priority 2014, dated 2018).
